Assay results taken from PubChem BioAssay (NCI).
Several values for one entry are separate records, joined by “and”; a condition that tells them apart may be missing. Identical values can stand only once.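 Dose response: 5 concentrations. Exposure: 48 h. Format: 96-well plates. Endpoint: linear interpolation; highest concentration if not reached. The concentration for 50% growth inhibition is given as GI50. TGI is the concentration that stops growth completely.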

Experiments:
Assay in all cases: inhibition of tumour cell growth, NCI panel, 48 h
IGROV1 ovarian = system: IGROV1 ovarian
RPMI-8226 leukemia = system: RPMI-8226 leukemia
CAKI-1 renal = system: CAKI-1 renal
SW-620 colon = system: SW-620 colon
MALME-3M melanoma = system: MALME-3M melanoma
SNB-75 CNS = system: SNB-75 CNS
NCI-H23 lung = system: NCI-H23 lung
COLO 205 colon = system: COLO 205 colon
NCI-H460 lung = system: NCI-H460 lung
HOP-92 NSCLC = system: HOP-92 NSCLC

SMILES	GI50 (IGROV1 ovarian) [µM]	TGI (IGROV1 ovarian) [µM]	GI50 (RPMI-8226 leukemia) [µM]	TGI (RPMI-8226 leukemia) [µM]	GI50 (CAKI-1 renal) [µM]	TGI (CAKI-1 renal)	GI50 (SW-620 colon) [µM]	TGI (SW-620 colon)	GI50 (MALME-3M melanoma) [µM]	TGI (MALME-3M melanoma)	GI50 (SNB-75 CNS) [µM]	TGI (SNB-75 CNS) [µM]	GI50 (NCI-H23 lung) [µM]	TGI (NCI-H23 lung) [µM]	GI50 (COLO 205 colon) [µM]	TGI (COLO 205 colon) [µM]	GI50 (NCI-H460 lung) [µM]	TGI (NCI-H460 lung) [µM]	GI50 (HOP-92 NSCLC) [µM]	TGI (HOP-92 NSCLC) [µM]
Cc1nn(-c2ccc(Cl)cc2)c2nc3c(nc12)C(=O)c1ccccc1-3	> 100	> 100	> 100	> 100	> 100	> 100 µM	> 100	> 100 µM	> 100	> 100 µM	10.9	46.3	> 100	> 100	> 100	> 100	–	–	–	–
C#C[C@]1(O)CCC2C3CCc4cc(O)ccc4C3CC[C@@]21C (stereo partly drawn)	11.2	52.4	–	–	9.15	87 µM	3.8	23.6 µM	7.08	22.4 µM	1.93	6.76	4.7	25.7	3.86	14	4.02	17.8	5.91	19.9
COc1ccc(NC(=O)/C(Cc2cc(=O)oc3cc(O)ccc23)=N\NC(C)(C)C)c(OC)c1	–	> 100	–	> 100	–	> 100 µM	–	> 100 µM	–	> 100 µM	–	–	–	> 100	–	> 100	–	> 100	–	> 100
COc1ccc2c(c1)C(=O)c1c-2c(N2CCN(C(=O)CNCCNCCO)CC2)nc2ccccc12	1.72	4.73	2.04	4.68	12.8	35 µM	1.73	3.28 µM	2.55	5.97 µM	–	–	–	–	2.17	4.19	1.94	4.14	2.47	9.68
[N-]=[N+]=N[C@H]1C[C@@H](CO)O[C@H]1n1cnc2c(N)ncnc21	–	–	–	–	–	> 100 µM	–	> 100 µM	–	> 100 µM	–	> 100	–	> 100	–	> 100	–	> 100	–	> 100
NC(=O)C12CC3CC(CC(F)(C3)C1)C2	–	> 100	–	> 100	–	–	–	> 100 µM	–	> 100 µM	–	> 100	–	> 100	–	> 100	–	> 100	–	> 100
Cc1[nH]c2ccccc2c1C(=O)/C=C/c1ccccc1O	–	> 100	–	–	–	> 100 µM	–	> 100 µM	–	> 100 µM	–	> 100	–	> 100	–	> 100	–	> 100	–	–
CC1c2c(Cl)nc3ccccc3c2Oc2c1c(Cl)nc1ccccc21	–	> 100	–	> 100	–	–	–	> 100 µM	–	> 100 µM	–	> 100	–	> 100	–	> 100	–	> 100	–	> 100
CC1CN(C(=O)CN2CCC(CCCCN(C)C)CC2)c2ccccc2NC1=O (stereo not drawn)	–	> 100	–	> 100	–	> 100 µM	–	> 100 µM	–	> 100 µM	–	–	–	> 100	–	> 100	–	> 100	–	> 100
COC1(OC)C(N(C)C)=C(Cl)C(=O)/C1=C/C=O	–	> 100	–	> 100	–	> 100 µM	–	> 100 µM	–	> 100 µM	–	–	–	> 100	–	> 100	–	> 100	–	> 100
COc1cc2c(cc1OCCCNC(=O)c1cccc3c(=O)c4ccccc4[nH]c13)N=C[C@@H]1CCCN1C2=O	–	> 33.5	–	–	0.116	0.571 µM	< 0.01	23.6 µM	–	0.388 µM	–	–	< 0.01	< 0.0225	< 0.01	0.0437	–	3.76	< 0.01	49.6
[Cl][Hg][c]1cc[c]([Hg][Cl])o1	1.93	10.1	1.66	7.34	–	–	1.32	3.23 µM	1.68	3.37 µM	3.78	19.6	7.91	92.1	1.65	3.26	10	34.1	1.77	3.52
O=C(Nc1ccncc1)C(=O)c1cn(S(=O)(=O)c2ccc(F)cc2)c2ccccc12	4.23	> 100	2.54	> 100	2.19	10.9 µM	2.34	> 100 µM	1.61	88.8 µM	2.76	15.7	2.54	> 100	24.7	> 100	16.3	> 100	–	–
CCOC(=O)C(=[N+]=[N-])[Si](C)(C)C	–	> 100	–	–	–	> 100 µM	–	> 100 µM	–	> 100 µM	–	> 100	–	> 100	–	> 100	–	> 100	–	> 100
CC(=O)c1sc(Nc2nnc(-c3ccc(-c4nnc(Nc5nc(C)c(C(C)=O)s5)o4)cc3)o2)nc1C	–	> 100	–	> 100	–	> 10 µM	–	> 100 µM	–	> 100 µM	–	–	–	> 100	–	> 100	–	> 100	–	> 100
C=C(Cl)C(Br)(CCl)CCC(Br)C(C)(C)Cl (stereo not drawn)	2.13	4.16	–	3.06	3.69	8.08 µM and 10.2 µM	1.46	4.54 µM and 3.23 µM	2.22	8.51 µM and 4.96 µM	–	11	2.46	5.57	2.13	4.64	–	20.7	–	–
O=C1/C(=C/c2cccc(Cl)c2Cl)N=C(c2ccccc2)N1C1CC1	19.7	> 50	3.88	14.5	14.8	39.5 µM	26.7	> 50 µM	–	–	6.06	15.9	9.35	19.5	15.1	> 50	15.3	> 50	–	–
COc1cc(-c2cc(-c3cc4c([nH]c5ccccc54)c(-c4cc(OC)c(OC)c(OC)c4)n3)cc(-c3ccccc3)n2)cc(OC)c1OC	6.44	> 100	2.88	18.5	5.67	> 100 µM	3.62	> 100 µM	6.3	70.9 µM	–	–	5.52	> 100	4.11	21.9	3.37	18.1	1.45	6.25

SMILES	GI50 (IGROV1 ovarian) [µM]	TGI (IGROV1 ovarian) [µM]	GI50 (RPMI-8226 leukemia) [µM]	TGI (RPMI-8226 leukemia) [µM]	GI50 (CAKI-1 renal) [µM]	TGI (CAKI-1 renal)	GI50 (SW-620 colon) [µM]	TGI (SW-620 colon)	GI50 (MALME-3M melanoma) [µM]	TGI (MALME-3M melanoma)	GI50 (SNB-75 CNS) [µM]	TGI (SNB-75 CNS) [µM]	GI50 (NCI-H23 lung) [µM]	TGI (NCI-H23 lung) [µM]	GI50 (COLO 205 colon) [µM]	TGI (COLO 205 colon) [µM]	GI50 (NCI-H460 lung) [µM]	TGI (NCI-H460 lung) [µM]	GI50 (HOP-92 NSCLC) [µM]	TGI (HOP-92 NSCLC) [µM]
CCOc1ccc(NC(=O)CC#N)cc1	–	> 100	–	–	–	> 100 µM	–	> 100 µM	–	> 100 µM	–	> 100	–	> 100	–	> 100	–	> 100	–	–
COc1cccc(C2=NC(C(C)C)CO2)c1 (stereo not drawn)	–	> 100	–	> 100	–	> 100 µM	–	> 100 µM	–	> 100 µM	–	> 100	–	> 100	–	> 100	–	> 100	–	–
O=C1C=CC(=O)c2cc3cc(CBr)ccc3cc21	7.75	> 73.9	–	–	2.34	6.25 µM	2.29	4.97 µM	3.1	29.3 µM	21.5	98.1	9.84	30.8	4.19	28.7	22	> 80.3	3.18	9.93
Cc1cc(N(CCC#N)CCC#N)ccc1N=Nc1ccc(C(=O)O)cc1	–	> 100	–	> 100	–	> 100 µM	–	> 100 µM	–	> 100 µM	–	> 100	–	> 100	–	> 100	–	–	–	–
CCN1CCC(O)(c2ccc(OC)cc2)C(C(=O)c2ccc(OC)cc2)C1 (stereo not drawn)	–	> 100	–	38.9	–	31.3 µM	–	25.9 µM	–	–	–	30.6	–	35.3	–	55.1	–	59.5	–	–
C1CN2CCN3CCN4CCN1[P+]243	–	> 100	–	> 100	–	–	–	> 100 µM	–	> 100 µM	–	> 100	–	> 100	–	> 100	–	> 100	–	–
CN(C)CC[PH+](c1ccccc1)c1ccccc1.CN(C)CC[PH+](c1ccccc1)c1ccccc1.[Cl-].[Pd+2]	> 100	> 100	99.8	> 100	> 100	> 100 µM	> 100	> 100 µM	> 100	> 100 µM	–	–	> 100	> 100	80.2	> 100	> 100	> 100	> 100	> 100
CC(C)Oc1ccc2cc(-c3nn(CC4CCNCC4)c4ncnc(N)c34)ccc2c1	11.1	24.8	3.1	12.9	10.9	22.9 µM	13.2	26.8 µM	–	–	1.09	15.2	11.3	25.8	3.39	13.2	14.9	28.5	6.37	20.8
COc1ccc(Nc2nnc(-c3cc(O)ccc3O)s2)cc1	28.9	> 50	8.67	21.1	34.2	> 50 µM	11.3	22.8 µM	–	–	9.45	> 50	> 50	> 50	> 50	> 50	40.4	> 50	–	–
COc1ccc(C(=O)/C=C/c2cc(-c3cc(OC)c(OC)c(OC)c3)n[nH]2)cc1OC	1.8	3.41	0.241	1.11	2.2	5.46 µM	1.37	2.99 µM	1.99	3.68 µM	–	–	2.15	5.24	1.74	3.21	1.41	3.33	–	–
COc1cc(NCc2ccc3nc(N)nc(N)c3c2C)cc(OC)c1OC (tested in a mixture with another compound)	–	68.6	–	–	–	–	0.000285	16.4 µM and 50.9 µM	–	30 µM and 49.4 µM	–	52.7	–	–	–	45.1	0.000169	34.8	0.0233	–
COc1ccc(CC2NCCc3c2[nH]c2ccccc32)cc1 (stereo not drawn)	–	> 100	–	> 100	–	–	–	> 100 µM	–	–	–	> 100	–	–	–	40.6	–	> 100	–	58.6
O=C1OCC2=C1C(c1cccc(Br)c1)c1cc3c(cc1N2CCO)CCC3 (stereo not drawn)	0.157	10.7	0.183	10	0.22	8.15 µM	0.0583	8.47 µM	0.066	12.1 µM	0.0607	9.41	0.136	8.42	0.111	0.263	0.101	5.19	–	–
CN(C)C(n1cc2c(c1)-c1ccc(Cl)cc1C(c1ccccc1F)=NC2)n1cc2c(c1)-c1ccc(Cl)cc1C(c1ccccc1F)=NC2	–	> 100	–	> 100	–	> 100 µM	–	> 100 µM	–	> 100 µM	–	77.2	–	24.4	–	> 100	–	> 100	–	–
O=C1/C(=C/c2ccc3c(c2)OCO3)SC2C=Nc3ccccc3N12 (stereo not drawn)	–	> 100	–	–	–	> 100 µM	–	> 100 µM	–	> 100 µM	–	> 100	–	> 100	–	> 100	–	> 100	–	> 100
OCC1OC(c2nc(C3=NCCCN3)cs2)C(O)C1O (stereo not drawn)	–	> 100	–	> 100	–	> 100 µM	–	> 100 µM	–	> 100 µM	–	–	–	> 100	–	> 100	–	> 100	–	> 100
O=C1Nc2ccccc2/C1=N\[O-].O=C1Nc2ccccc2/C1=N\[O-].[Cu+2]	> 100	> 100	> 100	> 100	> 100	> 100 µM	> 100	> 100 µM	> 100	> 100 µM	> 100	> 100	> 100	> 100	> 100	> 100	> 100	> 100	–	–
